Experimental data from the supplement of paper PMC11451515.

Key:
Settings in all cases: 48 h
P12-Ichikawa = assay: AUC of viability dose-response curve (% viability x log10 dose units); higher = less sensitive
In short: (§1)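 Leukemia cells adapted to each medium were seeded at 500 or 1000 cells/well in 1536-well plates and dosed with library compounds in DMSO at 11 threefold doses from 47 μM to 0.79 nM for 48 h at 37°C. CellTiter-Glo One luminescence was normalised per plate to DMSO and cell-free wells, then fitted with a four-parameter log-logistic model over log10 doses. Area under the curve was taken from this fit by the trapezoidal rule, with curves above full viability scaled and curves failing quality control removed.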

NOMO1 = assay: as above
In short: as §1

SEM cells [1] = assay: as above
In short: as §1

SEM cells [2] = assay: cell viability relative to DMSO control; higher = less cytotoxic
In short: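 Before seeding, each leukemia line was adapted for at least four passages in each medium. NOMO1 or SEM cells (500 cells/well) and P12-Ichikawa cells (1000 cells/well) went into 1536-well plates at 5 μl, then received library compounds in DMSO by pin dosing across 11 threefold concentrations, 47 μM to 0.79 nM. Readout was CellTiter-Glo One luminescence after 48 h at 37°C, and viability is given as a per-plate percentage of DMSO wells, with cell-free wells as background.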

[3] = RPMI 5 mM glucose + 10% dialyzed FBS
[4] = HPLM + 10% dialyzed FBS, 0.000781 µM
[5] = HPLM + 10% dialyzed FBS, 0.00234 µM
[6] = HPLM + 10% dialyzed FBS, 0.00702 µM
[7] = HPLM + 10% dialyzed FBS, 0.0211 µM
[8] = HPLM + 10% dialyzed FBS, 0.0632 µM
[9] = HPLM + 10% dialyzed FBS, 0.19 µM
[10] = HPLM + 10% dialyzed FBS, 0.569 µM
[11] = HPLM + 10% dialyzed FBS, 1.71 µM
[12] = HPLM + 10% dialyzed FBS, 5.12 µM
[13] = HPLM + 10% dialyzed FBS, 15.4 µM
[14] = HPLM + 10% dialyzed FBS, 46.1 µM
[15] = RPMI 5 mM glucose + 10% FBS, 0.000781 µM
[16] = RPMI 5 mM glucose + 10% FBS, 0.00234 µM
[17] = RPMI 5 mM glucose + 10% FBS, 0.00702 µM
[18] = RPMI 5 mM glucose + 10% FBS, 0.0211 µM
[19] = RPMI 5 mM glucose + 10% FBS, 0.0632 µM
[20] = RPMI 5 mM glucose + 10% FBS, 0.19 µM
[21] = RPMI 5 mM glucose + 10% FBS, 0.569 µM
[22] = RPMI 5 mM glucose + 10% FBS, 1.71 µM
[23] = RPMI 5 mM glucose + 10% FBS, 5.12 µM
[24] = RPMI 5 mM glucose + 10% FBS, 15.4 µM
[25] = RPMI 5 mM glucose + 10% FBS, 46.1 µM

Structure (SMILES)	AUC of viability dose-response curve (P12-Ichikawa; HPLM + 10% dialyzed FBS)	AUC of viability dose-response curve (P12-Ichikawa; RPMI 5 mM glucose + 10% FBS)	AUC of viability dose-response curve (P12-Ichikawa; [3])	AUC of viability dose-response curve (NOMO1; HPLM + 10% dialyzed FBS)	AUC of viability dose-response curve (NOMO1; RPMI 5 mM glucose + 10% FBS)	AUC of viability dose-response curve (NOMO1; [3])	AUC of viability dose-response curve (SEM cells [1]; HPLM + 10% dialyzed FBS)	AUC of viability dose-response curve (SEM cells [1]; RPMI 5 mM glucose + 10% FBS)	AUC of viability dose-response curve (SEM cells [1]; [3])	cell viability (SEM cells [2]; [4]) [%]	cell viability (SEM cells [2]; [5]) [%]	cell viability (SEM cells [2]; [6]) [%]	cell viability (SEM cells [2]; [7]) [%]	cell viability (SEM cells [2]; [8]) [%]	cell viability (SEM cells [2]; [9]) [%]	cell viability (SEM cells [2]; [10]) [%]	cell viability (SEM cells [2]; [11]) [%]	cell viability (SEM cells [2]; [12]) [%]	cell viability (SEM cells [2]; [13]) [%]	cell viability (SEM cells [2]; [14]) [%]	cell viability (SEM cells [2]; [15]) [%]	cell viability (SEM cells [2]; [16]) [%]	cell viability (SEM cells [2]; [17]) [%]	cell viability (SEM cells [2]; [18]) [%]	cell viability (SEM cells [2]; [19]) [%]	cell viability (SEM cells [2]; [20]) [%]	cell viability (SEM cells [2]; [21]) [%]	cell viability (SEM cells [2]; [22]) [%]	cell viability (SEM cells [2]; [23]) [%]	cell viability (SEM cells [2]; [24]) [%]	cell viability (SEM cells [2]; [25]) [%]
CN(C)c1cc(NC(=O)CNC(C)(C)C)c(O)c2c1C[C@H]1C[C@H]3[C@H](N(C)C)C(O)=C(C(N)=O)C(=O)[C@@]3(O)C(O)=C1C2=O	457	470	454	466	471	457	452	453	436	–	–	–	–	–	–	–	–	–	–	–	–	–	–	–	–	–	–	–	–	–	–
CN(Cc1cc(Br)cc(Br)c1N)C1CCCCC1	468	471	470	444	464	448	472	461	441	99.1	122	123	130	104	133	104	133	121	130	108	–	–	–	–	–	–	–	–	–	–	–
O=C(O)CCCc1c[nH]c2ccccc12	468	431	452	–	–	–	468	441	431	111	122	130	144	105	113	102	124	138	131	97.9	–	–	–	–	–	–	–	–	–	–	–
CNC(=O)N1\N=C(\C2=CC=C(N)C=C2)C3=CC4=C(OCO4)C=C3CC1C (stereo not given)	449	447	449	440	451	449	413	400	392	111	113	130	121	142	133	122	129	98.3	43.8	8.25	120	134	124	145	138	134	132	129	79.9	47.1	8.13
CC(=O)NCC(=O)N1[C@@H]2CC[C@H]1c1ccc(Nc3ncc(C(F)(F)F)c(NC4CCC4)n3)cc12	258	268	290	358	344	336	247	227	227	–	–	–	–	–	–	–	–	–	–	–	–	–	–	–	–	–	–	–	–	–	–
CC1=CC=C(C=C1)\C2=N\C3=CC=C(Cl)C=C3OC2	439	424	440	451	439	457	427	418	392	–	–	–	–	–	–	–	–	–	–	–	–	–	–	–	–	–	–	–	–	–	–
CC(COc1ccccc1)N(CCCl)Cc1ccccc1 (stereo not given)	367	372	380	304	280	316	465	451	469	89.3	102	121	110	116	115	104	110	123	119	89.4	101	123	127	120	112	135	131	128	148	147	115
CCN(CC)C(=O)C1=CC=C(C=C1)C/2=C/C3(CCNCC3)OC4=CC=CC(=C24)O	459	449	449	287	329	345	472	464	464	–	–	–	–	–	–	–	–	–	–	–	–	–	–	–	–	–	–	–	–	–	–
COc1cc2c(Oc3ccc4[nH]c(C)cc4c3F)ncnc2cc1OCCCN1CCCC1	448	449	448	453	452	463	382	380	356	–	–	–	–	–	–	–	–	–	–	–	–	–	–	–	–	–	–	–	–	–	–
C[C@@H]1C[C@H]2[C@@H]3\C=C(C)/C4=C/C5=C(C[C@]4(C)[C@H]3[C@@H](O)C[C@]2(C)[C@@]1(O)C(=O)CO)C=N[N]5C6=CC=CC=C6	308	280	246	425	446	461	296	300	267	143	123	112	109	101	71.2	66.9	64.9	72.3	57.7	36.4	–	–	–	–	–	–	–	–	–	–	–
N#Cc1ccc(C(c2ccc(C#N)cc2)n2cncn2)cc1	461	460	451	442	450	466	–	–	–	121	118	131	130	40.1	129	140	131	54.4	110	111	–	–	–	–	–	–	–	–	–	–	–
C[C@]12CC(=O)[C@H]3[C@@H](CC\C4=C\C(=O)\C=C/[C@]34C)[C@@H]1CC[C@]2(O)C(=O)CO	458	461	438	472	461	471	470	457	469	–	–	–	–	–	–	–	–	–	–	–	–	–	–	–	–	–	–	–	–	–	–
C[C@H]1O[C@H]([C@H](O)[C@@H]1O)N2\C=C(F)/C(=O)NC2=O	443	440	442	441	460	444	460	454	436	–	–	–	–	–	–	–	–	–	–	–	–	–	–	–	–	–	–	–	–	–	–
COc1ccccc1N1CCN(CCN(C(=O)C2CCCCC2)c2ccccn2)CC1	470	472	473	466	469	468	468	467	472	97.9	121	122	112	122	120	137	133	127	122	122	104	111	131	123	124	135	132	131	130	111	126
